Converted amounts (≈) assume the structure as drawn.
What was measured:
Leishmania major [1] = assay: Antileishmanial activity against Leishmania major MHOM/SA/85/JISH118 promastigote forms after 48 hrs by flow cytometric analysis; format: functional; settings: MHOM/SA/85/JISH118, 48 h
Leishmania major [2] = assay: Antileishmanial activity against Leishmania major MHOM/SA/85/JISH118 promastigote forms after 44 hrs by Alamar Blue assay; format: functional; settings: MHOM/SA/85/JISH118, 44 h
Leishmania major [3] = assay: Antileishmanial activity against Leishmania major MHOM/SA/85/JISH118 axenic amastigote forms after 44 to 46 hrs by Alamar Blue assay; format: functional
Leishmania tropica [4] = assay: Antileishmanial activity against Leishmania tropica amastigote forms infected in human monocyte-derived macrophage assessed as reduction in parasite infection at 2 ug/ml relative to control; format: functional; design: scale not given: the % may be the effect or the level left
[5] = Selectivity index, ratio of CC50 for mouse J774A.1 cells to IC50 for Leishmania donovani MHOM/IN/80/Dd8 amastigote forms infected in mouse J774A.1 cells; format: toxicity, cell-based; settings: read-out: Ratio CC50/IC50
Leishmania donovani [6] = assay: Antileishmanial activity against Leishmania donovani MHOM/IN/80/Dd8 amastigote forms infected in golden hamster assessed as inhibition in parasite infection in spleen at 50 mg/kg, ip administered for 5 days measured at day 7 post treatment by giemsa-staining based assay relative to control; format: functional; settings: MHOM/IN/80/Dd8, ip
Leishmania donovani [7] = assay: Antileishmanial activity against Leishmania donovani MHOM/IN/80/Dd8 amastigote forms infected in mouse J774A.1 cells assessed as reduction in parasite infection after 72 hrs by luciferase reporter gene assay; format: functional, cell-based; settings: MHOM/IN/80/Dd8, J774.A1, 72 h
Leishmania major [8] = assay: (§1) Antileishmanial activity against Leishmania major MHOM/SEN/96/NAN2 stationary phase promastigote forms infected in BALB/c mouse assessed as reduction in parasite burden in spleen at 10 mg/kg, ip qd administered for 5 consecutive days measured after 50 days by May-Grunwald-Giemsa staining-based method relative to control; format: functional; design: scale not given: the % may be the effect or the level left
Leishmania mexicana [9] = assay: Antileishmanial activity against Leishmania mexicana MHOM/MX/95/NAN1 axenic amastigote forms after 96 hrs by uptiblue-based spectrofluorimetric analysis; format: functional; settings: MHOM/MX/95/NAN1, 96 h
Leishmania major [10] = assay: as §1, with “liver” for “spleen”; format: functional; design: scale not given: the % may be the effect or the level left
Leishmania major [11] = assay: as §1, with “popliteal node” for “spleen”; format: functional; design: scale not given: the % may be the effect or the level left
Leishmania mexicana [12] = assay: Antileishmanial activity against Leishmania mexicana MHOM/MX/95/NAN1 amastigote forms infected in Balb/c mouse peritoneal macrophages after 48 hrs by May-Grunwald-Giemsa staining-based assay; format: functional; settings: MHOM/MX/95/NAN1, 48 h
[13] = Cytotoxicity against mouse J774A.1 cells assessed as reduction in cell viability after 2 mins by trypan blue dye-light microscopic analysis; format: cell-based, J774.A1
Leishmania major [14] = assay: Antileishmanial activity against Leishmania major MRHO/IR/75/ER amastigote forms infected in mouse J774A.1 cells after 60 hrs by giemsa-staining based light microscopic analysis; format: functional, cell-based; settings: J774.A1, 60 h
Leishmania major [15] = assay: Antileishmanial activity against Leishmania major MRHO/IR/75/ER promastigote forms after 72 hrs by MTT assay; format: functional
Leishmania braziliensis [16] = assay: Antileishmanial activity against Leishmania braziliensis MHOM/BR/75/M2903 promastigotes forms in presence of terbinafine by trypan blue-staining based light microscopy; format: functional
Leishmania chagasi [17] = assay: Antileishmanial activity against Leishmania infantum chagasi MHOM/BR/1972/LD promastigote forms infected in golden hamster after 48 hrs by Alamar Blue assay; format: functional
[18] = Cytotoxicity against mouse NCTC-929 cells assessed as reduction in cell viability after 48 hrs by Alamar Blue assay; format: cell-based; settings: NCTC-929, 48 h
Leishmania chagasi [19] = assay: Antileishmanial activity against Leishmania infantum chagasi MHOM/BR/1972/LD amastigote forms infected in BALB/c mouse macrophage after 120 hrs by giemsa-staining based light microscopic analysis; format: functional
Leishmania braziliensis [20] = assay: Antileishmanial activity against Leishmania (Viannia) braziliensis infected in human assessed as cure rate at 5 to 8 mg/kg/day, po for 4 weeks; format: functional
Leishmania major [21] = assay: Antileishmanial activity against Leishmania major MHOM/SN/74/Seidman promastigote forms after 8 days; format: functional; settings: 192 h
Leishmania amazonensis [22] = assay: Leishmanicidal activity against Leishmania amazonensis JOSEPHA promastigote forms after 18 hrs by indirect microscopic analysis; format: functional
Leishmania panamensis [23] = assay: Leishmanicidal activity against Leishmania panamensis L334 promastigotes forms after 18 hrs by indirect microscopic analysis; format: functional; settings: L334, 18 h
Leishmania panamensis [24] = assay: Leishmanicidal activity against Leishmania panamensis LS94 promastigote forms after 18 hrs by indirect microscopic analysis; format: functional; settings: LS94, 18 h
Leishmania major [25] = assay: Antileishmanial activity against Leishmania major infected in human assessed as healing of lesions at 200 mg/day, po administered for 6 weeks (reference value: 34%); format: functional
Leishmania mexicana [26] = assay: Leishmanicidal activity against Leishmania mexicana 390 promastigote forms after 18 hrs by indirect microscopic analysis; format: functional; settings: Leishmania mexicana, 390, 18 h
Leishmania amazonensis [27] = assay: Antileishmanial activity against Leishmania amazonensis LV78 promastigotes forms after 8 days; format: functional; settings: LV78, 192 h
Leishmania donovani [28] = assay: Leishmanicidal activity against Leishmania donovani 1S MHOM/SD/00/1S-2D promastigote forms after 18 hrs by indirect microscopic analysis; format: functional
Leishmania major [29] = assay: Leishmanicidal activity against Leishmania major KK promastigote forms after 18 hrs by indirect microscopic analysis; format: functional
Leishmania donovani [30] = assay: Antileishmanial activity against Leishmania donovani […] promastigote forms after 8 days; format: functional; settings: 192 h
Leishmania mexicana [31] = assay: Leishmanicidal activity against Leishmania mexicana 68 promastigote forms after 18 hrs by indirect microscopic analysis; format: functional; settings: Leishmania mexicana, 68, 18 h
Leishmania major [32] = assay: Antileishmanial activity against wild type Leishmania major LV39 Rho/SU/59/P promastigote forms after 48 hrs; format: functional
Leishmania major [33] = assay: Antileishmanial activity against Leishmania major LV39 Rho/SU/59/P promastigote forms harboring C14DM null mutant after 48 hrs; format: functional
Leishmania mexicana [34] = assay: Antileishmanial activity against Leishmania mexicana Walter Reed 227 promastigote forms assessed as reduction in promastigotes sterol biosynthesis at 10 nM after 24 hrs in presence of [2-14C]mevalonate by liquid scintillation spectrometry analysis relative to control; format: functional; design: scale not given: the % may be the effect or the level left
Leishmania amazonensis [35] = assay: Antileishmanial activity against Leishmania amazonensis LV78 axenic amastigote forms after 8 days; format: functional; settings: LV78, 192 h
Leishmania tropica [36] = assay: Antileishmanial activity against Leishmania tropica amastigote forms infected in human monocyte-derived macrophage assessed as reduction in parasite infection at 15 ug/ml relative to control; format: functional; design: scale not given: the % may be the effect or the level left

Cc1ccc(OCCCCn2ccnc2)c(Cl)c1 showed an EC50 (Leishmania major [1]) of 0.34 µM, an EC50 (Leishmania major [2]) of 0.21 µM and an EC50 (Leishmania major [3]) of 11.7 µM.
For Clc1ccc([C@@]2(Cn3ccnc3)OC[C@H](COc3ccc(N4CCNCC4)cc3)O2)c(Cl)c1, the Activity (Leishmania tropica [4]) was 85%.
With Clc1cccc(CO/N=C2/c3cccc(Cl)c3CCC2Cn2ccnc2)c1 (stereo unspecified) the selectivity ratio [5] was 25.6, the inhibition in vivo at 50 mg/kg (Leishmania donovani [6]) was 70% and the IC50 (Leishmania donovani [7]) was 2.32 µM.
For CCn1cc(C(c2ccc(Cl)cc2Cl)n2ccnc2)c2cc(Br)ccc21 (stereo unspecified), the Activity (Leishmania major [8]) was 98.9%, the IC50 (Leishmania mexicana [9]) was 4.4 µM and the Activity (Leishmania major [10]) was 79%. The Activity (Leishmania major [11]) was 49.9% and the IC50 (Leishmania mexicana [12]) was under 1 µM.
Work on O/N=C1/c2ccccc2OC(c2ccc(Cl)cc2)C1n1ccnc1 (stereo unspecified) yielded a CC50 at 2 min [13] of 355 µM and an IC50 (Leishmania major [14]) of 0.6 µM.
With O/N=C1/c2ccccc2OC(c2cccc(Cl)c2)C1n1ccnc1 (stereo unspecified) the IC50 (Leishmania major [15]) was 26.2 µM.
O[C@](Cn1cncn1)(Cn1cnc(/C=C/c2ccc(OCC(F)(F)C(F)F)cc2)n1)c1ccc(F)cc1F showed an MIC (Leishmania braziliensis [16]) of 0.03 µM.
Compound c1ccc(-c2ccc(C(c3ccccc3)n3ccnc3)cc2)cc1 (stereo unspecified) [BIFONAZOLE] has an IC50 (Leishmania chagasi [17]) of 8.97 µM and an IC50 [18] of 39.2 to 42.7 µM.
For Clc1ccccc1C(c1ccccc1)(c1ccccc1)n1ccnc1 [CLOTRIMAZOLE], the IC50 (Leishmania chagasi [17]) was 2.81 µM and the IC50 [18] was 39.2 to 42.7 µM.
In the case of Clc1ccc(COC(Cn2ccnc2)c2ccc(Cl)cc2Cl)cc1 (stereo unspecified) [ECONAZOLE], the IC50 (Leishmania chagasi [19]) is reported as 11 µM, the IC50 (Leishmania chagasi [17]) is reported as 5.36 µM and the IC50 [18] is reported as 39.2 to 42.7 µM.
With OC(Cn1cncn1)(Cn1cncn1)c1ccc(F)cc1F [FLUCONAZOLE] the Activity (Leishmania braziliensis [20]) was 75 - 100%, the IC50 (Leishmania major [21]) was over 163 µM and the MIC (Leishmania amazonensis [22]) was 104 µM (≈ 32 µg/mL). The MIC (Leishmania panamensis [23]) was 104 µM (≈ 32 µg/mL), the MIC (Leishmania panamensis [24]) was 104 µM (≈ 32 µg/mL) and the Activity (Leishmania major [25]) was 79%. The MIC (Leishmania mexicana [26]) was 104 µM (≈ 32 µg/mL), the IC50 (Leishmania amazonensis [27]) was over 163 µM and the MIC (Leishmania donovani [28]) was 104 µM (≈ 32 µg/mL). It also gave an MIC (Leishmania major [29]) of 104 µM (≈ 32 µg/mL), an IC50 (Leishmania donovani [30]) of over 163 µM and an MIC (Leishmania mexicana [31]) of 104 µM (≈ 32 µg/mL).
Work on CCC(C)n1ncn(-c2ccc(N3CCN(c4ccc(OCC5COC(Cn6cncn6)(c6ccc(Cl)cc6Cl)O5)cc4)CC3)cc2)c1=O (stereo unspecified) [ITRACONAZOLE] yielded an IC50 (Leishmania major [32]) of 0.4 µM and an IC50 (Leishmania major [33]) of 2 µM.
Work on CC(=O)N1CCN(c2ccc(OCC3COC(Cn4ccnc4)(c4ccc(Cl)cc4Cl)O3)cc2)CC1 (stereo unspecified) [KETOCONAZOLE] yielded an IC50 (Leishmania major [21]) of 0.55 to 3.54 µM, an Activity (Leishmania mexicana [34]) of 50% and an IC50 (Leishmania amazonensis [35]) of 3.14 µM. The Activity (Leishmania tropica [36]) was 85%, the MIC (Leishmania braziliensis [16]) was 0.03 µM and the IC50 (Leishmania amazonensis [27]) was 0.55 to 3.54 µM. The IC50 (Leishmania donovani [30]) was 0.55 to 3.54 µM and the IC50 (Leishmania major [14]) was 12.8 µg/mL.
Work on CC[C@@H]([C@H](C)O)n1ncn(-c2ccc(N3CCN(c4ccc(OC[C@@H]5CO[C@@](Cn6cncn6)(c6ccc(F)cc6F)C5)cc4)CC3)cc2)c1=O [POSACONAZOLE] yielded an MIC (Leishmania amazonensis [22]) of 11.4 to 22.8 µM (≈ 7.99 to 16 µg/mL), an MIC (Leishmania panamensis [23]) of 11.4 to 22.8 µM (≈ 7.99 to 16 µg/mL) and an MIC (Leishmania panamensis [24]) of 11.4 to 22.8 µM (≈ 7.99 to 16 µg/mL). The MIC (Leishmania mexicana [26]) was 11.4 to 22.8 µM (≈ 7.99 to 16 µg/mL), the MIC (Leishmania donovani [28]) was 11.4 to 22.8 µM (≈ 7.99 to 16 µg/mL) and the MIC (Leishmania major [29]) was 11.4 to 22.8 µM (≈ 7.99 to 16 µg/mL). It also gave an MIC (Leishmania mexicana [31]) of 11.4 to 22.8 µM (≈ 7.99 to 16 µg/mL).
In the case of C[C@@H](c1ncncc1F)[C@](O)(Cn1cncn1)c1ccc(F)cc1F [VORICONAZOLE], the IC50 (Leishmania major [21]) is reported as 6.1 to 10.4 µM, the IC50 (Leishmania amazonensis [35]) is reported as 5.84 µM and the IC50 (Leishmania amazonensis [27]) is reported as 6.1 to 10.4 µM. The IC50 (Leishmania donovani [30]) was 6.1 to 10.4 µM.

Source: ChEMBL document CHEMBL4052627, “An overview of azoles targeting sterol 14α-demethylase for antileishmanial therapy” (Eur J Med Chem, 2017)
